Source: BindingDB's records for doi:10.1016/j.bmcl.2005.11.059 (University of Kansas, 2006)

These compounds were tested against Toll-like receptor 4 (Homo sapiens, UniProt O00206) (assay: Inhibition of induction of NF-kappaB by LPS in HEK293 cells co-transfected with TLR4, CD14 and MD2).
Toll-like receptor 4, sequence (O00206 whole entry): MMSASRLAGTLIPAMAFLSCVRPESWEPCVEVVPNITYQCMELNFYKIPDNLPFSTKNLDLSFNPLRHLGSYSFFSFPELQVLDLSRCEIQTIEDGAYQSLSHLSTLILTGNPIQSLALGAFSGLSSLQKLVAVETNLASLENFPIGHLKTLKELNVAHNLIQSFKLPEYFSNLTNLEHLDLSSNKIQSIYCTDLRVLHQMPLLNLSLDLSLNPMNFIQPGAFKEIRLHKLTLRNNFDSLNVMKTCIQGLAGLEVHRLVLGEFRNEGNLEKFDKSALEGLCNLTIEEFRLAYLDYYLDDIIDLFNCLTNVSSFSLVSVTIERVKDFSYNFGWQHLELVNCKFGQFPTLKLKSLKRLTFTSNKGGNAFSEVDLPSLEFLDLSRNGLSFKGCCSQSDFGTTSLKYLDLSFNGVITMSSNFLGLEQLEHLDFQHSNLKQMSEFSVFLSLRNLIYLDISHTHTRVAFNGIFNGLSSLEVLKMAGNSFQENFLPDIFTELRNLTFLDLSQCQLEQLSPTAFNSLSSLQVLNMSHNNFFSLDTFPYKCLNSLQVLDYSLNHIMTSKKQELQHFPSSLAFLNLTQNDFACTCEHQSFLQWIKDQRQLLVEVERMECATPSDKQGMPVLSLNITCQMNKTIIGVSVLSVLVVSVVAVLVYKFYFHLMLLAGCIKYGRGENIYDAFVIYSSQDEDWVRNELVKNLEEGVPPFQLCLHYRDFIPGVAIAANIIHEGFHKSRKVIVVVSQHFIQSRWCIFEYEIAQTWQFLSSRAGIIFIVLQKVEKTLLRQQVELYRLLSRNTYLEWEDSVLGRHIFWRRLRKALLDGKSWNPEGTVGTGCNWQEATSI

SMILES	IC50
CCOc1c(C=NN=C(N)N)ccc(C=NN=C(N)N)c1OCC	35.6 µM
COc1c(C=NN=C(N)N)ccc(C=NN=C(N)N)c1OC	175 µM
NC(N)=NN=Cc1ccc(C=NN=C(N)N)cc1	164 µM
C=CCOc1c(C=NN=C(N)N)ccc(C=NN=C(N)N)c1OCC=C	61.4 µM
NC(N)=NN=Cc1ccc(C=NN=C(N)N)c(O)c1O	59.1 µM
CCCCCCCCCCCCCCOc1c(C=NN=C(N)N)ccc(C=NN=C(N)N)c1OCCCCCCCCCCCCCC	190 µM

Stronger by IC50, values ahead:

IC50	SMILES
4.5 µM	CCCCCCCCOc1c(C=NN=C(N)N)ccc(C=NN=C(N)N)c1OCCCCCCCC
9.4 µM	CCCCOc1c(C=NN=C(N)N)ccc(C=NN=C(N)N)c1OCCCC
27.6 µM	CCCOc1c(C=NN=C(N)N)ccc(C=NN=C(N)N)c1OCCC
10.5 µM	CCCCCOc1c(C=NN=C(N)N)ccc(C=NN=C(N)N)c1OCCCCC
6.11 µM	CCCCCCOc1c(C=NN=C(N)N)ccc(C=NN=C(N)N)c1OCCCCCC
